According to patent publication US12134620B2 (ARAXES PHARMA LLC, priority 2018, dated 2024):

biological target: T1, KRAS G12C 1-169, his-tagged protein, GDP-loaded (Homo sapiens, UniProt P01116, G12C); experiment: Biochemical assay: covalent modification of KRAS G12C, analysed by mass spectrometry (RapidFire/TOF or Q-Exactive); format: binding; details: Modification activity, modification percentage from MS peak intensities; further: time not given here
T1 construct: KRAS G12C 1-169, his-tagged protein, GDP-loaded; His tag
In short: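 GDP-loaded His-tagged KRAS G12C 1-169 (2 μM or 0.5 μM in 20 mM Hepes, 150 mM NaCl, 1 mM MgCl2) reacted with compound at 32 μM or 8 μM final (2% DMSO) for a set time, then quenched with formic acid. Percent covalent modification from deconvoluted intact-protein MS peak intensities (RapidFire/TOF or LC-Q Exactive).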

Row | Structure (SMILES) | Binding %
1 | C=CC(=O)N1CC2(CCN(c3nc(N4CCC5(CCN(C)C5)C4)nc(-c4c(C)ccc5[nH]ncc45)c3C#N)C2)C1 (stereo not drawn) [Compound I-77, 4-(2-acryloyl-2,6-diazaspiro[3.4]octan-6-yl)-6-(5-methyl-1H-indazol-4-yl)-2-(7-methyl-2,7-diazaspiro[4.4]nonan-2-yl)pyrimidine-5-carbonitrile] | +++ (+++ indicates binding activity greater than 85%)
2 | C=CC(=O)N1CC2(CCN(c3nc(N4CCOCC4)nc(-c4c(C)ccc5[nH]nc(C)c45)c3C#N)C2)C1 [Compound I-78, 4-(2-acryloyl-2,6-diazaspiro[3.4]octan-6-yl)-6-(3,5-dimethyl-1H-indazol-4-yl)-2-morpholinopyrimidine-5-carbonitrile] | +++ (+++ indicates binding activity greater than 85%)
3 | C=CC(=O)N1CC2(CCN(c3nc(N4CCOCC4)nc(-c4c(C)ccc5c4cnn5C)c3C#N)C2)C1 [Compound I-79, 4-(2-acryloyl-2,6-diazaspiro[3.4]octan-6-yl)-6-(1,5-dimethyl-1H-indazol-4-yl)-2-morpholinopyrimidine-5-carbonitrile] | + (+ indicates binding activity greater than 0% and up to 50%)
4 | C=CC(=O)N1CC2(CCN(c3nc(N4CCOCC4)nc(-c4cc(O)cc5ccccc45)c3C#N)C2)C1 [Compound I-80, 4-(2-acryloyl-2,6-diazaspiro[3.4]octan-6-yl)-6-(3-hydroxynaphthalen-1-yl)-2-morpholinopyrimidine-5-carbonitrile] | +++ (+++ indicates binding activity greater than 85%)
5 | C=CC(=O)N1CC2(CCN(c3nc(OC[C@@H]4CN(C)CCO4)nc(-c4c(C)ccc5[nH]ncc45)c3C#N)C2)C1 [Compound I-81, 4-(2-acryloyl-2,6-diazaspiro[3.4]octan-6-yl)-6-(5-methyl-1H-indazol-4-yl)-2-(((S)-4-methylmorpholin-2-yl)methoxy)pyrimidine-5-carbonitrile] | +++ (+++ indicates binding activity greater than 85%)
6 | C=CC(=O)N1CC2(CCN(c3nc(OC[C@@H]4CCCN4C)nc(-c4c(C)ccc5cn[nH]c45)c3C#N)C2)C1 [Compound I-82, 4-(2-acryloyl-2,6-diazaspiro[3.4]octan-6-yl)-6-(6-methyl-1H-indazol-7-yl)-2-(((S)-1-methylpyrrolidin-2-yl)methoxy)pyrimidine-5-carbonitrile] | + (+ indicates binding activity greater than 0% and up to 50%)
7 | C/C=C/C(=O)N1CC2(CCN(c3nc(N4CCOCC4)nc(-c4c(C)ccc5[nH]ncc45)c3C#N)C2)C1 [Compound I-83, (E)-4-(2-(but-2-enoyl)-2,6-diazaspiro[3.4]octan-6-yl)-6-(5-methyl-1H-indazol-4-yl)-2-morpholinopyrimidine-5-carbonitrile] | + (+ indicates binding activity greater than 0% and up to 50%)
8 | CC#CC(=O)N1CC2(CCN(c3nc(N4CCOCC4)nc(-c4c(C)ccc5[nH]ncc45)c3C#N)C2)C1 [Compound I-84, 4-(2-(but-2-ynoyl)-2,6-diazaspiro[3.4]octan-6-yl)-6-(5-methyl-1H-indazol-4-yl)-2-morpholinopyrimidine-5-carbonitrile] | + (+ indicates binding activity greater than 0% and up to 50%)
9 | Cc1ccc2[nH]ncc2c1-c1nc(N2CCOCC2)nc(N2CCC3(CN(C(=O)/C=C/CN(C)C)C3)C2)c1C#N [Compound I-85, (E)-4-(2-(4-(dimethylamino)but-2-enoyl)-2,6-diazaspiro[3.4]octan-6-yl)-6-(5-methyl-1H-indazol-4-yl)-2-morpholinopyrimidine-5-carbonitrile] | + (+ indicates binding activity greater than 0% and up to 50%)
10 | C=CC(=O)N1CC2(CCN(c3nc(OCCCN(C)C)nc(-c4c(C)ccc5[nH]ncc45)c3C#N)CC2)C1 [Compound I-86, 4-(2-acryloyl-2,7-diazaspiro[3.5]nonan-7-yl)-2-(3-(dimethylamino)pro-poxy)-6-(5-methyl-1H-indazol-4-yl)pyrimidine-5-carbonitrile] | ++ (++ indicates binding activity from 50 to 85%)
11 | C=CC(=O)N1CC2(CCN(c3nc(OCCN4CC(F)(F)C4)nc(-c4c(C)ccc5[nH]ncc45)c3C#N)C2)C1 [Compound I-87, 4-(2-acryloyl-2,6-diazaspiro[3.4]octan-6-yl)-2-(2-(3,3-difluoroazetidin-1-yl)ethoxy)-6-(5-methyl-1H-indazol-4-yl)pyrimidine-5-carbonitrile] | ++ (++ indicates binding activity from 50 to 85%)
12 | C=CC(=O)N1CC2(CCN(c3nc(N4CCOCC4)nc(N4CCCc5ccccc54)c3C#N)C2)C1 [Compound I-88, 4-(2-acryloyl-2,6-diazaspiro[3.4]octan-6-yl)-6-(3,4-dihydroquinolin-1(2H)-yl)-2-morpholinopyrimidine-5-carbonitrile] | + (+ indicates binding activity greater than 0% and up to 50%)
13 | C=CC(=O)N1CC2(CCN(c3nc(N4CCOCC4)nc(N4CC(O)Cc5ccccc54)c3C#N)C2)C1 (stereo not drawn) [Compound I-89, 4-(2-acryloyl-2,6-diazaspiro[3.4]octan-6-yl)-6-(3-hydroxy-3,4-dihydroquinolin-1(2H)-yl)-2-morpholinopyrimidine-5-carbonitrile] | + (+ indicates binding activity greater than 0% and up to 50%)
14 | C=CC(=O)N1CC2(CCN(c3nc(OC[C@@H]4CCCN4C)nc(-c4n[nH]c5ccccc45)c3C#N)C2)C1 [Compound I-90, (S)-4-(2-acryloyl-2,6-diazaspiro[3.4]octan-6-yl)-6-(1H-indazol-3-yl)-2-((1-methylpyrrolidin-2-yl)methoxy)pyrimidine-5-carbonitrile] | + (+ indicates binding activity greater than 0% and up to 50%)
15 | C=CC(=O)N1CC2(CCN(c3nc(OC[C@@H]4CN(C)CCO4)nc(-c4c(C)ccc5[nH]ncc45)c3C#N)C2)C1 [Compound I-91, 4-(2-acryloyl-2,6-diazaspiro[3.4]octan-6-yl)-6-(5-methyl-1H-indazol-4-yl)-2-(((S)-4-methylmorpholin-2-yl)methoxy)pyrimidine-5-carbonitrile] | ++ (++ indicates binding activity from 50 to 85%)
16 | C=CC(=O)N1CC2(CCN(c3nc(OC[C@@H]4CCCN4C)nc(-c4cc(O)cc5ccccc45)c3C#N)C2)C1 [Compound I-92, (S)-4-(2-acryloyl-2,6-diazaspiro[3.4]octan-6-yl)-6-(3-hydroxynaphthalen-1-yl)-2-((1-methylpyrrolidin-2-yl)methoxy)pyrimidine-5-carbonitrile] | ++ (++ indicates binding activity from 50 to 85%)
17 | C=CC(=O)N1CC2(CCN(c3nc(OCc4ccccn4)nc(-c4c(C)ccc5cn[nH]c45)c3C#N)C2)C1 [Compound I-93, 4-(2-acryloyl-2,6-diazaspiro[3.4]octan-6-yl)-6-(6-methyl-1H-indazol-7-yl)-2-(pyridin-2-ylmethoxy)pyrimidine-5-carbonitrile] | +++ (+++ indicates binding activity greater than 85%)
18 | C=CC(=O)N1CC2(CCN(c3nc(OC[C@@H]4CCCN4C)nc(-c4cc(C(N)=O)ccc4F)c3C#N)C2)C1 [Compound I-94, (S)-3-(6-(2-acryloyl-2,6-diazaspiro[3.4]octan-6-yl)-5-cyano-2-((1-methylpyrrolidin-2-yl)methoxy)pyrimidin-4-yl)-4-fluorobenzamide] | + (+ indicates binding activity greater than 0% and up to 50%)
